The record followed here is patent US20150265642A1, “NAD BIOSYNTHESIS AND PRECURSORS IN THE PREVENTION AND TREATMENT OF INFLAMMATION” (PRESIDENT AND FELLOWS OF HARVARD COLLEGE, priority 2013, published 2015).

Entries after “also recorded” stand apart in the source; their conditions may differ.

Assay [1] can be described thus: Lactate levels in skeletal muscle of NMN-treated mice. The class given is in vivo. To be noted: 22-month-old mice; NMN one week. From the text:
(§1) C57BL/6J mice of 6, 22, or 30 months of age were obtained from the National Institutes of Aging mouse aging colony. Additionally 22 months old caloric restricted mice were also obtained from the National Institutes of Aging mouse aging colony. EGLN1 KO, SIRT1 KO and SIRT1 OE mice were generated as previously described (Minamishima et al., 2008; Price et al., 2012). Mice were acclimated for at least one-week prior to sacrifice. 3, 6, 22 and 24-month-old mice were given interperitoneal (IP) injections of 500 mg NMN/kg body weight per day or the equivalent volume of PBS for 7 consecutive days at 5:00 pm and 7:00 am on day 8 and sacrificed 4 hr after last injection.

In a further assay the test system is HIF-1α. Put plainly: Immunoblot for HIF-1α in gastrocnemius of NMN-treated mice. It is filed as in vivo. The method, then:
(§2) C57BL/6J mice of 3, 6, 22, 24, or 30 months of age were obtained from the National Institutes of Aging mouse aging colony. Mice were acclimated for at least one-week prior to sacrifice. 3, and 24-month-old mice were given interperitoneal (IP) injections of 500 mg NMN/kg body weight per day or the equivalent volume of PBS for 7 consecutive days at 5:00 pm and 7:00 am on day 8 and sacrificed 4 hr after last injection. All animal studies followed the guidelines of and were approved by the Harvard Institutional Animal Care and Use Committee
C57BL/6J mice of 6, 22, or 30 months of age were obtained from the National Institutes of Aging mouse aging colony. Additionally 22 months old caloric restricted mice were also obtained from the National Institutes of Aging mouse aging colony. […]
Protein extracts from tissue or C2C12 cells were obtained by lysis in ice-cold lysis buffer (150 mM NaCl, 10 mM Tris HCl (pH 7.4), 1 mM EDTA, 1 mM EGTA, 1% Triton X-100, 0.5% NP-40) supplemented with a cocktail of protease and phosphatase inhibitors (Roche). Protein content was determined by the Bradford protein assay (Biorad), and 50 μg proteins were run on SDS-PAGE under reducing conditions. […] The immunostaining was detected using horseradish peroxidase-conjugated anti-rabbit or anti-mouse immunoglobulin for 1 h at room temperature. […]

The subject of the next assay is Atrogin-1 and MuRF1. In words: Immunoblot for muscle wasting markers in gastrocnemius. To be noted: skeletal muscle of old (22-month-old) mice; NMN. The class given is in vivo.
Source text: as §1
(§3) Protein extracts from tissue or C2C12 cells were obtained by lysis in ice-cold lysis buffer (150 mM NaCl, 10 mM Tris HCl (pH 7.4), 1 mM EDTA, 1 mM EGTA, 1% Triton X-100, 0.5% NP-40) supplemented with a cocktail of protease and phosphatase inhibitors (Roche). Protein content was determined by the Bradford protein assay (Biorad), and 50 μg proteins were run on SDS-PAGE under reducing conditions. The separated proteins were then electrophoretically transferred to a polyvinylidene difluoride membrane (Perkin-Elmer). […] The immunostaining was detected using horseradish peroxidase-conjugated anti-rabbit or anti-mouse immunoglobulin for 1 h at room temperature.

In assay [2] the test system is skeletal muscle mitochondria. In words: Mitochondrial function in skeletal muscle (membrane potential, ATP content, COX activity). It is filed as in vivo, mice. The method, then: as §2
Skeletal muscle mitochondria were isolated as described previously (Frezza et al., Nat. Protoc. 2:287-295 (2007)). Mitochondrial membrane potential, cytochrome c activity and succinate dehydrogenase were determined as described (Brautigan et al., Methods Enzymol. 53:128-164 (1978); Rolo et al., Biochim. Biophys. Acta. 1637:127-132 ([…]); Singer, T. P., Methods Biochem. Anal. 22:123-175 (1974)). ATP content was measured with a commercial kit according to the manufacturer's instructions (Roche).
as §1
(§4) Whole body adult-inducible Egln1 knockout mice (Minamishima et al, 2007) were treated with IP injection of tamoxifen for 3 days after which they were allowed to rest. The mice were given interperitoneal (IP) injections of 500 mg NMN/kg body weight per day or the equivalent volume of PBS for 7 consecutive days at 5:00 pm and 7:00 am on day 8 and sacrificed 4 hr after last injection. All animal studies followed the guidelines of and were approved by the Harvard Institutional Animal Care and Use Committee.
Cytochrome c oxidase activity was polarographically determined based on the 02 consumption upon cytochrome c oxidation, as previously described (Brautigan et al., 1978). The reaction was carried out at 25° C. in 1.3 mL of standard respiratory medium (as in mitochondrial respiration) supplemented with 2 μM rotenone, 10 μM oxidized cytochrome c, 0.3 mg TritonX-100. Following addition of the sample, the reaction was initiated by adding 5 mM ascorbate plus 0.25 mM tetramethylphenylene-diamine (TMPD).
ATP content was measured with a commercial kit according to the manufacturer's instructions (Roche).

The subject of another assay is AKT and IRS-1. In words: Insulin signaling (phosphorylation of AKT and IRS-1) in skeletal muscle. It is filed as in vivo. To be noted: soleus of old mice treated with NMN.
Source text: as §1, §3

Assay [3] deals with mitochondrial-encoded genes (ND1, Cytb, COX1 and ATP6). Put plainly: qPCR of mitochondrial-encoded genes in gastrocnemius of NMN-treated mice. It is filed as in vivo.
Source text: as §1, §4
RNA from skeletal muscle tissue and C2C12 cells were extracted with RNeasy mini kit (Qiagen) according to the instructions and quantified using the NanoDrop 1000 spectrophotometer (Thermo Scientific). cDNA was synthesized with the iSCRIP cDNA synthesis kit (BioRad) using 600 ng of RNA. Quantitative RT-PCR reactions were performed using 1 μM of primers and LightCycler® 480 SYBR Green Master (Roche) on an LightCycler® 480 detection system (Roche). Calculations were performed by a comparative method (2-ΔCT) using 18S as an internal control. For mtDNA analysis, total DNA was extracted with DNeasy blood and tissue kit (Qiagen). mtDNA was amplified using primers specific for the mitochondrial cytochrome c oxidase subunit 2 (COX2) gene and normalized to genomic DNA by amplification of the ribosomal protein s18 (rps18) nuclear gene. […]
Background: In qPCR the cycle at which signal appears reflects the starting amount.

In the next assay the test system is VHL. Put plainly: Immunoblot for VHL in gastrocnemius of NMN-treated mice. The class given is in vivo. Particulars: 22-month-old mice, NMN one week.
Source text: as §1, §3

[4] abbreviates: Egln1 KO mice treated with NMN, compared to WT controls.
Setting [5] is: treated 24-month-old mice, NMN 500 mg/kg IP, one week.

With `NC(=O)c1ccc[n+]([C@@H]2O[C@H](COP(=O)([O-])O)[C@@H](O)[C@H]2O)c1` [NMN, nicotinamide mononucleotide], the “lactate levels in the skeletal muscle” value in assay [1] is “suppressed the increase in lactate levels”. Besides, the HIF-1α protein result in the assay with HIF-1α (22-month-old mice, gastrocnemius, NMN IP 500 mg/kg/day, 7 days, 500 mg/kg/day) is “reversed the age-induced decline in VHL and consequent accumulation of HIF-1α; also recorded: destabilizes HIF-1alpha in the skeletal muscle of old animals”. Also, the HIF-1α in muscle result in the assay on HIF-1α (24-month-old mice, NMN 500 mg/kg IP, one week) is “reversed the age-induced increase in HIF-1α in muscle”. In addition, the “muscle wasting markers Atrogin-1 and MuRF1” value in the assay on Atrogin-1 and MuRF1 is “completely reversed”. The ATP levels entry in assay [2] (22-month-old mice, gastrocnemius, NMN one week) is listed as “increase”. For the same molecule, the “ATP levels in the skeletal muscle” value in assay [2] (setting [4]) was “did not restore”. Moreover, in assay [2] (inducible SIRT1 KO mice), the “ability of NMN to improve mitochondrial function” value was “lost in animals lacking SIRT1”. Further, in assay [2] (old mice, NMN one week (FIG. 24H: 3- and 24-month-old)), the COX activity entry is “increase”. In addition, in assay [2] (setting [5]), the ATP levels entry was “increases”, the COX activity entry is “increases” and the mitochondrial membrane potential entry is “restoration of mitochondrial membrane potential to the levels of the young mice”. Also, the “insulin signaling (phosphorylation of AKT and IRS-1)” value with AKT and IRS-1 is given as “restore insulin signaling”. For the same molecule, the “mitochondrial-encoded genes in the skeletal muscle” value in assay [3] (setting [4]) is “did not restore”. Further, the “ability of NMN to induce mitochondrially-encoded genes” value in assay [3] (inducible SIRT1 KO mice, skeletal muscle) is recorded as “lost in animals lacking SIRT1”. Also, the “expression of mitochondrial-encoded genes” value in assay [3] (old (22-month-old) mice, gastrocnemius, NMN one week) was “restored”. For the same molecule, the VHL protein entry with VHL is given as “reversed the age-induced decline in VHL”.
